These results are taken from PubChem BioAssay (NCI).

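96-well plates; 48 h exposure; 5 concentrations. Endpoints by linear interpolation between flanking doses. Not reached: highest tested concentration assigned. GI50 marks 50% less growth. TGI denotes the concentration required for complete inhibition of growth.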

For the first assay, the system named is MALME-3M melanoma. The experiment in a line: NCI anticancer screen, dose series, 48 h.
On to `Nc1ccn(CCNCCn2cnc3nc(N)[nH]c(=O)c32)c(=O)n1`, for which the TGI is greater than 100 µM.

The next assay relates to RPMI-8226 leukemia. The experiment in a line: NCI anticancer screen, dose series, 48 h.
Take `CCCC(C)c1cc(Cc2cc(Cl)cc(Cl)c2O)c(O)c(Cc2cc(Cl)cc(Cl)c2O)c1` (centres undefined): the GI50 was 0.363 µM and the TGI was determined as 2.5 µM.
The molecule `C/C(=N\NS(=O)(=O)c1ccccc1)c1ccc(Cl)c(Cl)c1` showed a TGI greater than 100 µM.
Consider `COc1ccc(-c2nn3c(-c4cc(F)c(Cl)cc4Cl)nnc3s2)cc1`, for which the GI50 is 19.6 µM and the TGI was found to be 52.7 µM.
As for `CCCNC1=C(C(=O)OCC)C(=O)CO1`, the TGI was greater than 100 µM.
The same measure, in the same setting: the value for `COC(=O)C(=O)C1(CCC(C)=O)c2ccccc2-c2c(C)ccc(C)c21` (centres undefined) was 78.6 µM.
As for `O=C(NCCO)Nc1ccc(-c2nc(N3CCOCC3)c3cccn3n2)cc1`, the GI50 was 0.405 µM and the TGI is greater than 54.6 µM.
The matching figures for `CC(C)c1cc(-c2n[nH]c(=O)n2-c2ccc3c(ccn3C)c2)c(O)cc1O`: less than 0.0218 µM and 31.3 µM.
As for `COc1ccc2nc(-c3cccs3)cc(C(O)CN3CCSCC3)c2c1` (centres undefined), the TGI amounted to 43 µM.
On the same count and under the same terms, the value for `N#C/C(=C\c1ccc(O)c(O)c1)C(N)=S` was greater than 100 µM; that for `O=C(CN1CCOCC1)Nc1nc(-c2ccc(Cl)cc2)cs1` was 53.7 µM.
As to `COc1ccc(-c2nc3sc4c(c3c(=O)[nH]2)CCCCCC4)cc1`, the GI50 is greater than 33.2 µM and the TGI was greater than 33.2 µM.
In the case of `O=C1CC(c2ccc(O)cc2)C2(O1)C(=O)OC(C(O)CO)C2O` (centres undefined), the TGI is greater than 100 µM.
With `CC1=C(C)C(=O)c2c(cc3ccccn23)C1=O`, the TGI was determined as 65.9 µM.
The same measure, in the same setting: the value for `CC1SC2=NC3=C(c4ccccc4C3=O)C(c3ccc(F)cc3)N2C1=O` (centres undefined) was greater than 100 µM; that for `CC1C=C(OC(=O)c2ccccc2)C(=O)C(n2cc(F)c(=O)[nH]c2=O)O1` (centres undefined) was greater than 100 µM.
For the molecule `COc1ccc(-c2ccc(/C=N/n3c(COc4ccc(Cl)cc4Cl)nn(CN4CCOCC4)c3=S)o2)c([N+](=O)[O-])c1`, the GI50 is 12.7 µM and the TGI amounted to 40.1 µM.
For `OC(c1cc(-c2ccccc2)nc2ccc(Cl)cc12)C1CCCCN1` (centres undefined) the same measures were 2.25 µM and 5.49 µM.
The matching figures for `COc1ccc(OC)c(/C=C2\SC(=S)NC2=O)c1`: 36.7 µM and greater than 100 µM.
The molecule `CCN(CC)c1ccc(C(=O)c2ccccc2C(=O)O)c(O)c1` had a TGI greater than 100 µM.
Take `CC(CCC(=O)O)[C@H]1CCC2[C@@H]3CC[C@@H]4CC(O)CC[C@]4(C)C3CC[C@@]21C` (some centres undefined): the GI50 was 23.6 µM and the TGI came to 57.1 µM.
`Nc1ccn(CCNCCn2cnc3nc(N)[nH]c(=O)c32)c(=O)n1` gave a TGI greater than 100 µM.

In the next assay the test system is SK-MEL-5 melanoma. The experiment in a line: NCI anticancer screen, dose series, 48 h.
Consider `CCCC(C)c1cc(Cc2cc(Cl)cc(Cl)c2O)c(O)c(Cc2cc(Cl)cc(Cl)c2O)c1` (centres undefined), for which the GI50 was 0.428 µM and the TGI worked out at 2.21 µM.
Molecule `C/C(=N\NS(=O)(=O)c1ccccc1)c1ccc(Cl)c(Cl)c1` had a TGI greater than 100 µM.
Turning to `COc1ccc(-c2nn3c(-c4cc(F)c(Cl)cc4Cl)nnc3s2)cc1`, the GI50 is 17.6 µM and the TGI was 44.7 µM.
In the case of `CCCNC1=C(C(=O)OCC)C(=O)CO1`, the TGI is greater than 100 µM.
On the same count and under the same terms, to `COC(=O)C(=O)C1(CCC(C)=O)c2ccccc2-c2c(C)ccc(C)c21` (centres undefined) belongs 65.2 µM.
On to `O=C(NCCO)Nc1ccc(-c2nc(N3CCOCC3)c3cccn3n2)cc1`, for which the GI50 is 0.236 µM and the TGI turned out to be 3.67 µM.
For `CC(C)c1cc(-c2n[nH]c(=O)n2-c2ccc3c(ccn3C)c2)c(O)cc1O` the same measures were less than 0.0207 µM and 13.9 µM.
Turning to `COc1ccc2nc(-c3cccs3)cc(C(O)CN3CCSCC3)c2c1` (centres undefined), the TGI amounted to 37.6 µM.
`N#C/C(=C\c1ccc(O)c(O)c1)C(N)=S` showed a TGI greater than 100 µM.
With `COc1ccc(-c2nc3sc4c(c3c(=O)[nH]2)CCCCCC4)cc1`, the GI50 is 2.52 µM and the TGI was greater than 33.2 µM.
`O=C1CC(c2ccc(O)cc2)C2(O1)C(=O)OC(C(O)CO)C2O` (centres undefined) showed a TGI greater than 100 µM.
Still for that read-out and setting: to `CC1=C(C)C(=O)c2c(cc3ccccn23)C1=O` belongs 22.1 µM.
On the same count and under the same terms, to `CC1SC2=NC3=C(c4ccccc4C3=O)C(c3ccc(F)cc3)N2C1=O` (centres undefined) belongs greater than 100 µM; to `CC1C=C(OC(=O)c2ccccc2)C(=O)C(n2cc(F)c(=O)[nH]c2=O)O1` (centres undefined), greater than 100 µM.
`OC(c1cc(-c2ccccc2)nc2ccc(Cl)cc12)C1CCCCN1` (centres undefined): the GI50 was 1.91 µM and the TGI amounted to 3.47 µM.
With `COc1ccc(OC)c(/C=C2\SC(=S)NC2=O)c1`, the GI50 was 21.2 µM and the TGI amounted to 49.2 µM.
On to `CCN(CC)c1ccc(C(=O)c2ccccc2C(=O)O)c(O)c1`, for which the TGI is greater than 100 µM.

A further assay concerns SN12C renal. The assay can be described thus: NCI anticancer screen, dose series, 48 h.
As for `CCCC(C)c1cc(Cc2cc(Cl)cc(Cl)c2O)c(O)c(Cc2cc(Cl)cc(Cl)c2O)c1` (centres undefined), the GI50 is 0.415 µM and the TGI amounted to 10.4 µM.
For `C/C(=N\NS(=O)(=O)c1ccccc1)c1ccc(Cl)c(Cl)c1`, the TGI was greater than 100 µM.
For `COc1ccc(-c2nn3c(-c4cc(F)c(Cl)cc4Cl)nnc3s2)cc1`, the GI50 was 43.4 µM and the TGI was greater than 100 µM.
`CCCNC1=C(C(=O)OCC)C(=O)CO1`: the TGI was greater than 100 µM.
On the same count and under the same terms, to `COC(=O)C(=O)C1(CCC(C)=O)c2ccccc2-c2c(C)ccc(C)c21` (centres undefined) belongs greater than 100 µM.
Take `O=C(NCCO)Nc1ccc(-c2nc(N3CCOCC3)c3cccn3n2)cc1`: the GI50 is 0.567 µM and the TGI is greater than 100 µM.
The matching figures for `CC(C)c1cc(-c2n[nH]c(=O)n2-c2ccc3c(ccn3C)c2)c(O)cc1O`: less than 0.0222 µM and greater than 52.2 µM.
As for `COc1ccc2nc(-c3cccs3)cc(C(O)CN3CCSCC3)c2c1` (centres undefined), the TGI was 87.7 µM.
With `N#C/C(=C\c1ccc(O)c(O)c1)C(N)=S`, the TGI was greater than 100 µM.
Still for that read-out and setting: to `O=C(CN1CCOCC1)Nc1nc(-c2ccc(Cl)cc2)cs1` belongs greater than 100 µM.
